# In ChEMBL document CHEMBL1151407, “Bisbenzylisoquinoline Alkaloids” (1983):
# Key:
# Type in all cases: functional
# Ehrlich [1] = assay: In vivo antitumor activity against Ehrlich ascite carcinoma in mouse
# [2] = system: Lewis lung carcinoma cell line; assay: In vivo antitumor activity against mouse Lewis lung carcinoma cells xenografted in mouse assessed as suppression of tumor growth at 100 mg/kg
# [3] = In vivo antitumor activity against ascites carcinoma in mouse
# Ehrlich [4] = assay: In vivo antitumor activity against mouse Ehrlich ascite carcinoma cells xenografted in mouse assessed as suppression of tumor growth at 70 mg/kg
# CCRF S-180 = assay: In vivo antitumor activity against mouse S180 cells xenografted in mouse assessed as suppression of tumor growth at 70 mg/kg
smiles,measurement,setting,value
COc1ccc2cc1Oc1ccc(cc1)C[C@H]1c3cc(OC)c(OC)c(c3CCN1C)Oc1c(OC)c(OC)cc3c1[C@H](C2)N(C)CC3 [THALIDASINE],LD50,Ehrlich [1],520 mg/kg
same,Activity,[2],58%
same,LD50,[3],300 mg/kg
same,Activity,Ehrlich [4],50%
same,Activity,CCRF S-180,20%
